Experimental data as given in the supplement of paper PMC11061612.

How the values were obtained:
Experiment in all cases: combination Emax (second highest fraction inhibited in the dose matrix, 72 h); higher = more inhibition; extreme values may be limits of the assay
[1] = test system: CAMA-1 (Breast Carcinoma)
Summary of the method: (§1)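 Cell lines in DMEM/F12 or RPMI with 10% FBS were plated in 1536-well plates, held 24 hours at 37°C, 5% CO2, then given two-drug dose matrices for 72 hours (DMSO typically 0.2%). Viability was read by CellTiter-Glo 2.0 luminescence and scaled as inhibition from 0 (vehicle wells) to 1 (blank wells). Combination Emax is the second-highest inhibition in the matrix; Bliss excess is observed combination effect minus expected EA + EB − EA·EB, EA and EB being single-agent effects.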

[2] = test system: NCI-H847 (Small Cell Lung Carcinoma)
Summary of the method: as §1

[3] = test system: MKN28 (Gastric Carcinoma)
Summary of the method: as §1

[4] = test system: MOLT-16 (T-Lymphoblastic Leukemia)
Summary of the method: as §1

[5] = test system: K-562 (Chronic Myelogenous Leukemia)
Summary of the method: as §1

TC-71 (Ewing's Sarcoma) = test system: TC-71 (Ewing's Sarcoma)
Summary of the method: as §1

[6] = test system: MFM-223 (Breast Carcinoma)
Summary of the method: as §1

[7] = test system: EVSA-T (Breast Carcinoma)
Summary of the method: as §1

[8] = test system: DND-41 (T-Lymphoblastic Leukemia)
Summary of the method: as §1

[9] = test system: DiFi (Colorectal Carcinoma)
Summary of the method: as §1

[10] = test system: P12-ICHIKAWA (T-Lymphoblastic Leukemia)
Summary of the method: as §1

ES1 (Ewing's Sarcoma) = test system: ES1 (Ewing's Sarcoma)
Summary of the method: as §1

U251 (Low Grade Glioma) = test system: U251 (Low Grade Glioma)
Summary of the method: as §1

[11] = test system: NCI-H1792 (Lung Adenocarcinoma)
Summary of the method: as §1

[12] = test system: SW837 (Colorectal Carcinoma)
Summary of the method: as §1

[13] = test system: TOV-112D (Ovarian Carcinoma)
Summary of the method: as §1

[14] = test system: TE-6 (Esophageal Squamous Cell Carcinoma)
Summary of the method: as §1

WIL2-NS (Non-Cancerous) = test system: WIL2-NS (Non-Cancerous)
Summary of the method: as §1

WM-115 (Melanoma) = test system: WM-115 (Melanoma)
Summary of the method: as §1

[15] = test system: COLO-678 (Colorectal Carcinoma)
Summary of the method: as §1

| Structure (SMILES) | combination Emax [1] | combination Emax [2] | combination Emax [3] | combination Emax [4] | combination Emax [5] | combination Emax (TC-71 (Ewing's Sarcoma)) | combination Emax [6] | combination Emax [7] | combination Emax [8] | combination Emax [9] | combination Emax [10] | combination Emax (ES1 (Ewing's Sarcoma)) | combination Emax (U251 (Low Grade Glioma)) | combination Emax [11] | combination Emax [12] | combination Emax [13] | combination Emax [14] | combination Emax (WIL2-NS (Non-Cancerous)) | combination Emax (WM-115 (Melanoma)) | combination Emax [15] |
| --- | --- | --- | --- | --- | --- | --- | --- | --- | --- | --- | --- | --- | --- | --- | --- | --- | --- | --- | --- | --- |
| CC(=O)Nc1cccc(-n2c(=O)n(C3CC3)c(=O)c3c(Nc4ccc(I)cc4F)n(C)c(=O)c(C)c32)c1 [Trametinib] + Cc1nc(-c2cn3c(n2)-c2ccc(-c4cnn(C(C)(C)C(N)=O)c4)cc2OCC3)n(C(C)C)n1 [Taselisib] (first compound max 1 µM, 7x7, partner max 10 µM) | 0.491 | 0.782 | 0.708 | 0.776 | 0.495 | 0.714 | 0.865 | 0.947 | 0.369 | 1 | 0.658 | 0.651 | 0.848 | 1 | 0.738 | 0.641 | 0.908 | 0.723 | 0.951 | 0.608 |
| CC1(C)CCC(CN2CCN(c3ccc(C(=O)NS(=O)(=O)c4ccc(NCC5CCOCC5)c([N+](=O)[O-])c4)c(Oc4cnc5[nH]ccc5c4)c3)CC2)=C(c2ccc(Cl)cc2)C1 [Venetoclax] + C[C@@H]1COCCN1C2=NC(=NC(=C2)C3(CC3)[S@](=N)(=O)C)C4=C5C=CNC5=NC=C4 [AZD6738] (first compound max 1 µM, 7x7, partner max 10 µM) | 0.41 | 0.999 | 0.488 | 1 | 0.788 | 0.954 | 0.752 | 0.378 | 0.987 | 0.81 | 0.986 | 0.942 | 0.518 | 0.725 | 0.348 | 0.656 | 0.67 | 0.997 | 0.524 | 0.164 |
| CC1(C)CCC(CN2CCN(c3ccc(C(=O)NS(=O)(=O)c4ccc(NCC5CCOCC5)c([N+](=O)[O-])c4)c(Oc4cnc5[nH]ccc5c4)c3)CC2)=C(c2ccc(Cl)cc2)C1 [Venetoclax] + COc1cc(Nc2ncc3c(n2)-c2ccc(Cl)cc2C(c2c(F)cccc2OC)=NC3)ccc1C(=O)O [Alisertib] (first compound max 1 µM, 7x7, partner max 10 µM) | 0.341 | 1 | 0.245 | 1 | 0.693 | 0.855 | 0.849 | 0.598 | 0.947 | 0.559 | 0.953 | 0.842 | 0.49 | 0.65 | 0.308 | 0.684 | 0.527 | 0.825 | 0.379 | 0.181 |
| Cc1c2c(nn1C)CSCc1cc(n(C)n1)CSc1cc(c3ccccc3c1)OCCCc1c(C(=O)O)n(C)c3c-2c(Cl)ccc13 [AZD5991] + CN(C)CCCOc1ccc(-c2ccc3ncc4c(c3c2)n(C2CCOCC2)c(=O)n4C)cn1 [AZD0156] (first compound max 1 µM, 7x7, partner max 1 µM) | 0.555 | 0.57 | 0.275 | 1 | 0.172 | 0.463 | 0.238 | 1 | 0.158 | 0.252 | 0.994 | 0.753 | 0.607 | 0.345 | 0.208 | 0.551 | 0.792 | 0.388 | 0.244 | 0.152 |
| CC1(C)CCC(CN2CCN(c3ccc(C(=O)NS(=O)(=O)c4ccc(NCC5CCOCC5)c([N+](=O)[O-])c4)c(Oc4cnc5[nH]ccc5c4)c3)CC2)=C(c2ccc(Cl)cc2)C1 [Venetoclax] + Cn1cnc2c(F)c(Nc3ccc(Br)cc3Cl)c(C(=O)NOCCO)cc21 [Selumetinib] (first compound max 1 µM, 7x7, partner max 3 µM) | 0.0815 | 0.168 | 0.278 | 0.691 | 0.414 | 0.291 | 0.24 | 0.182 | 0.891 | 0.351 | 0.23 | 0.338 | 0.137 | 0.251 | 0.297 | 0.156 | 0.319 | 0.87 | 0.42 | 0.485 |
| Cc1c2c(nn1C)CSCc1cc(n(C)n1)CSc1cc(c3ccccc3c1)OCCCc1c(C(=O)O)n(C)c3c-2c(Cl)ccc13 [AZD5991] + C1CN(CCC1(C(=O)N[C@@H](CCO)C2=CC=C(C=C2)Cl)N)C3=NC=NC4=C3C=CN4 [Capivasertib] (first compound max 1 µM, 7x7, partner max 3 µM) | 0.994 | 0.78 | 0.12 | 1 | 0.374 | 0.47 | 0.788 | 1 | 0.111 | 0.438 | 1 | 0.955 | 0.224 | 0.302 | 0.121 | 0.407 | 0.811 | 0.666 | 0.584 | 0.194 |
| Cc1c2c(nn1C)CSCc1cc(n(C)n1)CSc1cc(c3ccccc3c1)OCCCc1c(C(=O)O)n(C)c3c-2c(Cl)ccc13 [AZD5991] + CC1(C)CCC(CN2CCN(c3ccc(C(=O)NS(=O)(=O)c4ccc(NCC5CCOCC5)c([N+](=O)[O-])c4)c(Oc4cnc5[nH]ccc5c4)c3)CC2)=C(c2ccc(Cl)cc2)C1 [Venetoclax] (first compound max 1 µM, 7x7, partner max 1 µM) | 0.934 | 0.98 | 0.126 | 1 | 0.226 | 0.831 | 0.276 | 1 | 0.418 | 0.624 | 1 | 0.93 | 0.239 | 0.379 | 0.184 | 0.777 | 0.677 | 0.23 | 0.59 | 0.0393 |
| CN(CCO)CC[C@H](CSc1ccccc1)Nc1ccc(S(=O)(=O)NC(=O)c2ccc(N3CCC([C@@H](O)c4ccccc4-c4ccc(Cl)cc4)CC3)cc2)cc1S(=O)(=O)C(F)(F)F [AZD4320] + Cc1cc2ncnn2cc1Nc1ncc2c(n1)n(C1CCOCC1)c(=O)n2C [AZD7648] (first compound max 1 µM, 7x7, partner max 10 µM) | 0.229 | 1 | 0.153 | 1 | 0.17 | 0.593 | 0.223 | 0.191 | 1 | 0.784 | 1 | 0.355 | 0.118 | 0.287 | 0.201 | 0.318 | 0.524 | 0.335 | 0.489 | 0.105 |
| Cc1c2c(nn1C)CSCc1cc(n(C)n1)CSc1cc(c3ccccc3c1)OCCCc1c(C(=O)O)n(C)c3c-2c(Cl)ccc13 [AZD5991] + Cn1cnc2c(F)c(Nc3ccc(Br)cc3Cl)c(C(=O)NOCCO)cc21 [Selumetinib] (first compound max 1 µM, 7x7, partner max 3 µM) | 0.509 | 0.863 | 0.387 | 1 | 0.416 | 0.578 | 0.282 | 1 | 0.181 | 0.875 | 1 | 0.777 | 0.274 | 0.704 | 0.325 | 0.414 | 0.62 | 0.236 | 0.68 | 0.423 |
| CN(CCO)CC[C@H](CSc1ccccc1)Nc1ccc(S(=O)(=O)NC(=O)c2ccc(N3CCC([C@@H](O)c4ccccc4-c4ccc(Cl)cc4)CC3)cc2)cc1S(=O)(=O)C(F)(F)F [AZD4320] + C[C@@H]1COCCN1C2=NC(=NC(=C2)C3(CC3)[S@](=N)(=O)C)C4=C5C=CNC5=NC=C4 [AZD6738] (first compound max 1 µM, 7x7, partner max 10 µM) | 0.658 | 1 | 0.442 | 1 | 0.88 | 1 | 0.842 | 0.213 | 1 | 0.954 | 1 | 0.942 | 0.534 | 0.777 | 0.585 | 0.729 | 0.792 | 0.985 | 0.769 | 0.11 |
| CC1(C)CCC(CN2CCN(c3ccc(C(=O)NS(=O)(=O)c4ccc(NCC5CCOCC5)c([N+](=O)[O-])c4)c(Oc4cnc5[nH]ccc5c4)c3)CC2)=C(c2ccc(Cl)cc2)C1 [Venetoclax] + C=CCn1c(=O)c2cnc(Nc3ccc(N4CCN(C)CC4)cc3)nc2n1-c1cccc(C(C)(C)O)n1 [AZD1775] (first compound max 1 µM, partner max 1 µM) | 0.38 | 0.992 | 0.501 | 1 | 0.892 | 0.424 | 0.457 | 0.329 | 1 | 0.674 | 0.966 | 0.946 | 0.297 | 0.828 | 0.453 | 0.393 | 0.497 | 0.99 | 0.27 | 0.328 |
